This note sets out measurements from patent US20250325529A1, “INHIBITORS OF FATTY ACID BINDING PROTEINS (FABPs), METHODS OF USE AND METHODS OF MAKING” (Celloram, inc., priority 2024, published 2025).

The subject of one data set is BT-549 cells. Briefly: Proliferation assay (Incucyte confluency), BT-549. The note with it: Homo sapiens, 96 h, 4 days, read-out: IC50, inhibition of proliferation. The format is cell-based. As for the experimental part:
(§1) COS-7, MDA-MB-231, and HepG2, were cultured in Dulbecco's modified Eagle's medium (DMEM) supplemented with 10% fetal bovine serum (Invitrogen Life Sciences, Carlsbad, CA). BT-549, OVCAR5 and OVCAR8 cells were cultured in L-Glutamine containing RPMI medium supplemented with 10% fetal calf serum (Invitrogen Life Sciences, Carlsbad, CA). The primary Human Mammary Epithelial Cells (HMEC) were cultured in mammary epithelial cell complete medium (basal medium plus rH-Insulin (5 μg/mL); L-Glutamine (6 mM); Epinephrine (1 μM); Apo-Transferrin (5 μg/mL); rH-TGF-α (0.5 ng/mL); ExtractP (0.4%); Hydrocortisone Hemisuccinate (100 ng/mL)).
(§2) 2000 cells were plated in each well of 96-well plate. The next day cells were treated with compounds and incubated in Incucyte for 4 days. Images taken every 4 hours for the duration of the time were analyzed to calculate percentage of confluency in response to the treatments. Growth inhibition was calculated as 1—(percentage of viable cells out of untreated cells).

The target in the next data set is PPARγ (Homo sapiens (Human), UniProt P37231). The data set can be described thus: Transcriptional activation assay in COS7 cells, PPARγ. To be noted: PPRE luciferase reporter, PD151 and PD152 at 10 μM. The format is cell-based. As for the experimental part: (§3) COS-7 were cultured in 6-well plates and co-transfected with either a luciferase reporter driven by 3 copies of a PPRE and expression vector for either PPARδ, PPARα or PPARγ together with a vector harboring cDNA for β-galactosidase, serving as a transfection control. To test whether FABP4 or FABP5 mediate activation of their cognate receptors PPARγ and PPARδ, respectively, cells were also co-transfected with a plasmid harboring sequence of either FABP4 or FABP5. 18 h post-transfection, cells were placed in a serum-free medium and treated with agonist/compound. 18 h. later, cells were lysed, luciferase activity was assayed (Promega, WI, USA) and corrected for transfection efficiency by the activity of β-galactosidase.
(§4) Transcriptional activation assays were carried out utilizing COS7 cells as described above.

Data set [1] in a line: Single dose IV and PO PK study in C57BL/6 mice. Type of data set: in vivo. To be noted: male C57BL/6 mice. The method, then:
C57BL/6 male mice or Han Wistar rats were used, n=3 for each administration route and compound. Single dose of each compound was administered orally (PO, 10 mg/Kg) or by intravenous administration (IV, 1 mg/Kg). Following intravenous and oral administration, blood samples (ca 0.2 mL) were collected and compound amount was measured by HLPC. For IV group, blood samples were collected at 0.083, 0.25, 0.5, 1, 2, 4, 6, 8, and 24 hours post-dose. For PO group, blood samples were collected at 0.25, 0.5, 1, 2, 4, 6, 8, and 24 hours post-dose.

For a further data set, the system named is OVCAR5 cells. Briefly: Proliferation assay (Incucyte confluency), OVCAR5. The format is cell-based, human. The note with it: 4 days. As for the experimental part:
as §1, §2

The subject of the next data set is MB-231 cells. The data set can be described thus: Proliferation assay (Incucyte confluency), MB-231. Type of data set: cell-based. The note with it: Homo sapiens, 96 h, 4 days, read-out: IC50, inhibition of proliferation. The method, then:
as §1, §2

The target of another data set is PPARδ (Homo sapiens (Human), UniProt Q03181). The data set can be described thus: Transcriptional activation assay in COS7 cells, PPARδ. To be noted: PPRE luciferase reporter, PD151 and PD152 at 10 μM. Type of data set: cell-based. The method, then:
as §3, §4
On the technique in general: Reporter assays use an easily measured gene product as a stand-in for the process of interest.

The target of another data set is FABP7 (Homo sapiens (Human), UniProt O15540). Briefly: Fluorescence (ANS) competition binding assay, FABP7. The note with it: ANS displacement. As for the experimental part:
(§5) This example illustrates a two-step fluorescence binding assay study used to determine the binding affinity of the various inhibitor compounds disclosed herein with the various FABPs: FABP3, FABP4, FABP5 and FABP7. Further secondary screening studies were carried out for compounds with high binding affinities toward the FABPs and based on their ability to activate the nuclear receptors PPARα, PPARγ, or PPARδ.
(§6) Binding assays for FABP3, FABP4, FABP5 and FABP7 were carried out by fluorescence titrations. His-tagged FABPs were bacterially expressed in E. coli, purified using Ni Sepharose beads, and the equilibrium dissociation constants (Kd) that characterize their interactions with different inhibitor compounds were measured by fluorescence competition assays. The method entails two steps as described in e.g., Lin, Q. et al., “Ligand selectivity of the peroxisome proliferator-activated receptor alpha,” Biochemistry 38, 185-190, doi:10.1021/bi9816094 [pii](1999). In the first step, Kd for the association of the protein with the fluorescent fatty acid probe ANS was measured. Protein (2 μM) was titrated with ANS from a concentrated solution in DMSO. Ligand binding was monitored by following the increase in the fluorescence of the ligand upon binding to the protein, and Kd for the association of ANS with the each FABP was computed from titration curves as described in e.g., Norris, A. W. & Li, E., “Fluorometric titration of the CRABPs,” Methods Mol Biol 89, 123-139 (1998)). In the second step, Kds for binding of non-fluorescent ligands were measured by monitoring their ability to displace ANS in the binding pocket of the protein. Each FABP was precomplexed with ANS at 1:1 molar ratio and titrated with the different compounds whose binding was reflected by a decrease in probe fluorescence. Kds were extracted from the EC50 of the competition curve and the measured Kd for ANS.

For the next data set, the system named is OVCAR8 cells. Briefly: Proliferation assay (Incucyte confluency), OVCAR8. Type of data set: cell-based. The note with it: Homo sapiens, OVCAR-8, 96 h, 4 days, read-out: IC50, inhibition of OVCAR8 proliferation. As for the experimental part:
as §1, §2

The target in another data set is FABP3 (Homo sapiens (Human), UniProt P05413). The data set can be described thus: Fluorescence (ANS) competition binding assay, FABP3. To be noted: ANS displacement. As for the experimental part:
as §5, §6

In another data set the target is PPARα (Homo sapiens (Human), UniProt Q07869). The data set can be described thus: Transcriptional activation assay in COS7 cells, PPARα. Type of data set: cell-based. To be noted: PPRE luciferase reporter, PD151 and PD152 at 10 μM. The method, then: as §3, §4
For a further data set, the target named is FABP5 (Homo sapiens (Human), UniProt Q01469). Briefly: Fluorescence (ANS) competition binding assay, FABP5. To be noted: ANS displacement. The method, then:
as §5, §6

For a further data set, the target named is FABP4 (Homo sapiens (Human), UniProt P15090). The data set can be described thus: Fluorescence (ANS) competition binding assay, FABP4. To be noted: ANS displacement. The method, then:
as §5, §6

[2] abbreviates: mouse, plasma, intravenous 1 mg/kg.

“Also recorded” adds a separate entry of the source.

Chain of PPARα (Q07869 whole entry, species assumed): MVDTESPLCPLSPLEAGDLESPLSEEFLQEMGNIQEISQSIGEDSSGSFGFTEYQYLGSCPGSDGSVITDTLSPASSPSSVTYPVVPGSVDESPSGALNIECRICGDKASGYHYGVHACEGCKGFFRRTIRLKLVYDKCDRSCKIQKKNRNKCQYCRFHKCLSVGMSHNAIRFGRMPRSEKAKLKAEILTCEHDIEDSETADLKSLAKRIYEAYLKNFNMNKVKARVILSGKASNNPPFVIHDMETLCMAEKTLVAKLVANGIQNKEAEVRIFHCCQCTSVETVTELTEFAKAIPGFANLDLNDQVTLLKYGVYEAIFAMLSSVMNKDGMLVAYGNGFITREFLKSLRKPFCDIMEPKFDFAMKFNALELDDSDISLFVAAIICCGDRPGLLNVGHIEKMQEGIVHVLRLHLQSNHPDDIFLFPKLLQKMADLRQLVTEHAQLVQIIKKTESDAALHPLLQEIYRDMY
Chain of PPARδ (Q03181 whole entry, species assumed): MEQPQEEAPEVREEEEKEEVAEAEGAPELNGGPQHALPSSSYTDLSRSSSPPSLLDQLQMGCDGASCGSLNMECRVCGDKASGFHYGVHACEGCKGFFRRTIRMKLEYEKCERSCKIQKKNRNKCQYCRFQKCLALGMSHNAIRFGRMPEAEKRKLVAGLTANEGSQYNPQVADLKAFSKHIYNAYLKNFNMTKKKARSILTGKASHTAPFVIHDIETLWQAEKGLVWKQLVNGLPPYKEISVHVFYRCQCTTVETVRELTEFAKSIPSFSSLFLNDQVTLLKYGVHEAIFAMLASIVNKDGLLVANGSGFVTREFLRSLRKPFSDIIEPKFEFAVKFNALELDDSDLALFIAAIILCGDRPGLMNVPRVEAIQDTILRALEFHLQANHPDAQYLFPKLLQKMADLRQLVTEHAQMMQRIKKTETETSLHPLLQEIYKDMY
Chain of PPARγ (P37231 whole entry, species assumed): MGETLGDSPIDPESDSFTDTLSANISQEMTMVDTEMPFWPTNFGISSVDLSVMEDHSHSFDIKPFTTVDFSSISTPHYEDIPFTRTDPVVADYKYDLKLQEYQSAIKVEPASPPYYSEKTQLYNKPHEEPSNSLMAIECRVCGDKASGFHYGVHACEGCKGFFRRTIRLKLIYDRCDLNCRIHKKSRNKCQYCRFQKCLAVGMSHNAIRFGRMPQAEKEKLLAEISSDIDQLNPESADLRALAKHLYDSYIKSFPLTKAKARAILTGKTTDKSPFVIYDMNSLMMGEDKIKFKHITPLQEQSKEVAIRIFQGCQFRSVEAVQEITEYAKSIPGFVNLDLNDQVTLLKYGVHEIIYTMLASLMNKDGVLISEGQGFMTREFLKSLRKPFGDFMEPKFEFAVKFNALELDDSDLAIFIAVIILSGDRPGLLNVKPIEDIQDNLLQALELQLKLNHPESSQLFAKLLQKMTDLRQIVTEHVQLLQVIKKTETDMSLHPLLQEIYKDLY
Chain of FABP5 (Q01469 whole entry, species assumed): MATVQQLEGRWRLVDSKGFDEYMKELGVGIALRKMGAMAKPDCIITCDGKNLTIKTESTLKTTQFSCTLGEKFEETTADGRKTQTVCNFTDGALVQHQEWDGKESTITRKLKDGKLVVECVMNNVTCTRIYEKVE
Chain of FABP7 (O15540 whole entry, species assumed): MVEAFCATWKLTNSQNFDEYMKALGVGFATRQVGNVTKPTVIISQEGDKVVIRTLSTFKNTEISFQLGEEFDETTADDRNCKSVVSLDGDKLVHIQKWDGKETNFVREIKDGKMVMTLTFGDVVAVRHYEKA
Chain of FABP3 (P05413 whole entry, species assumed): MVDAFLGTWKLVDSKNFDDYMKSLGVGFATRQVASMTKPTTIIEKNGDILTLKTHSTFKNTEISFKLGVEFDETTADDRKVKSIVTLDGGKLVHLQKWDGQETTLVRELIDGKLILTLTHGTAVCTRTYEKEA
Chain of FABP4 (P15090 whole entry, species assumed): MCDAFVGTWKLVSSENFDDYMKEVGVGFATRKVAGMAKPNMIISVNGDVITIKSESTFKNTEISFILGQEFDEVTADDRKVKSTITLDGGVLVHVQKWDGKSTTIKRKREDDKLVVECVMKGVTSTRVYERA

Turning to `CC(C)Oc1nc(NC(=O)CSCC(=O)O)c(Cl)cc1C(F)(F)F` [PD151, 2-((2-((3-chloro-6-isopropoxy-5-(trifluoromethyl)pyridin-2-yl)amino)-2-oxoethyl)thio)acetic acid], the IC50 was determined as 1010 nM with BT-549 cells, 727 nM in the data set on MB-231 cells and 700 nM in the data set with OVCAR8 cells. At PPARγ, the “Activation of transcription by PPARγ” value was “None of these tested compounds activated; also recorded: none of the tested compounds PD151 and PD152 activated transcription”. The same molecule showed a Thalf in data set [1] (oral 10 mg/kg) of 4 h. For the same molecule, the clearance in data set [1] (setting [2]) is 5.3 mL/min/kg. The half-life (in general, the time in which the quantity being followed falls by half) in [1] (setting [2]) fell in the range of 3 to 4 h. For the same molecule, in data set [1] (mouse, plasma, single oral dose 10 mg/kg), the bioavailability – broadly, the share of a dose that reaches the circulation, judged against a reference dose that is usually intravenous – is 95%. Further, the “Inhibition of OVCAR5 proliferation” value in the data set on OVCAR5 cells is “inhibited proliferation of the two cell lines in a dose-dependent manner”. In addition, on PPARδ, the “Activation of transcription by PPARδ” value is “None of these tested compounds activated; also recorded: none of the tested compounds PD151 and PD152 activated transcription”. Further, the Kd (in general, the equilibrium constant for the complex coming apart) on FABP7 was > 1000 nM; on FABP3, 250 nM; on FABP5, 16 nM; at FABP4, 18 nM. Also, the “Activation of transcription by PPARα” value on PPARα was “None of these tested compounds activated; also recorded: none of the tested compounds PD151 and PD152 activated transcription”.
